The target in data set [1] is T1, Microtubule-associated protein tau (Homo sapiens, UniProt P10636). The data set is described as follows: Displacement of thiazene red from tau aggregate.
Data set [2] deals with T1, Microtubule-associated protein tau. The data set is described as follows: Binding affinity to intracellular fibrillar tau in Alzheimer patient brain by fluorescence microscopic analysis. It counts as cell-based.
The nature of data set [3]: Displacement of thiazene red from amyloid beta (1 to 40) aggregate.
Data set [4] addresses T1, Microtubule-associated protein tau. The data set is described as follows: Binding affinity to extracellular tau plaques in Alzheimer patient brain by fluorescence microscopic analysis.
Data set [5] can be described thus: Selectivity ratio of IC50 for amyloid beta (1 to 40) aggregate to IC50 for tau aggregate.
A short description of data set [6]: Lipophilicity, log P of the compound. The class given is physicochemical. The note with it: octanol/water.
Data set [7] concerns HepG2. Nature of the data set: Cytotoxicity against human HepG2 cells. It counts as cell-based.
In data set [8] the test system is Mus musculus. The data set is described as follows: Binding affinity to amyloid beta plaque in transgenic mouse brain overexpressing APP Swedish mutant/PS1deltaE9 at 2 mg/kg, ip after 4 hrs by fluorescence microscopic analysis. It counts as functional, organism-based. Details: dose 2 mg/kg.
Data set [9] is described as follows: Displacement of methoxy-XO4 from amyloid beta (1 to 40) aggregate.
The target in data set [10] is Amyloid-beta precursor protein (Homo sapiens) (UniProt P05067). Nature of the data set: Binding affinity to intravascular amyloid beta angiopathies in Alzheimer patient brain by fluorescence microscopic analysis.
Data set [11] shares this target. The data set is described as follows: Binding affinity to extracellular amyloid beta plaques in Alzheimer patient brain by fluorescence microscopic analysis.
Data set [12] can be described thus: Selectivity ratio of IC50 for tau aggregate to IC50 for amyloid beta (1 to 40) aggregate.
Data set [13] deals with T1, Microtubule-associated protein tau. The data set is described as follows: Binding affinity to tau aggregate in Alzheimer patient bowmans gland of olfactory epithelium.

Each structure is given as a SMILES string. Active and inactive are the calls of the source. No cut-off for these calls is given here.

T1 sequence (P10636 whole entry): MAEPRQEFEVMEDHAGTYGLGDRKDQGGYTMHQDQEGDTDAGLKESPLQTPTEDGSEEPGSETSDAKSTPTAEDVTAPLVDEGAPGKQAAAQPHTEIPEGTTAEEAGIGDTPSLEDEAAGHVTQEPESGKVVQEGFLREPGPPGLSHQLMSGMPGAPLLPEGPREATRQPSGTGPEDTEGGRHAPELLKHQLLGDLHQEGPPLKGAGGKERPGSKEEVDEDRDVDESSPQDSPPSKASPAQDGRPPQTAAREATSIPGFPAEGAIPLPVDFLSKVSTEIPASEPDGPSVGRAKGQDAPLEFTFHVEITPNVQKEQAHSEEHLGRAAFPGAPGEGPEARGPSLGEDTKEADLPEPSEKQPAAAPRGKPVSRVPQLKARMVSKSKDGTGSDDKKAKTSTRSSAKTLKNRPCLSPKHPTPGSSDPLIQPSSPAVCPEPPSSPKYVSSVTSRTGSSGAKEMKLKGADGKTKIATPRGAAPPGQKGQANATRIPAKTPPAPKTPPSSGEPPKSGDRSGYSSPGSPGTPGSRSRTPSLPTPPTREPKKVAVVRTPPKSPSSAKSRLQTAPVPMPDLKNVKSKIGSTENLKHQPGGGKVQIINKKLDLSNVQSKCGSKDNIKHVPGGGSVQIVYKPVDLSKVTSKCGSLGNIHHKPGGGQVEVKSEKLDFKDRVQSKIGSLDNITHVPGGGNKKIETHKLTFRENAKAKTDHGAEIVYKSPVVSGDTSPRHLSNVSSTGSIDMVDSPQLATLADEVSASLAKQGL
Sequence of Amyloid-beta precursor protein (Homo sapiens) (P05067 whole entry): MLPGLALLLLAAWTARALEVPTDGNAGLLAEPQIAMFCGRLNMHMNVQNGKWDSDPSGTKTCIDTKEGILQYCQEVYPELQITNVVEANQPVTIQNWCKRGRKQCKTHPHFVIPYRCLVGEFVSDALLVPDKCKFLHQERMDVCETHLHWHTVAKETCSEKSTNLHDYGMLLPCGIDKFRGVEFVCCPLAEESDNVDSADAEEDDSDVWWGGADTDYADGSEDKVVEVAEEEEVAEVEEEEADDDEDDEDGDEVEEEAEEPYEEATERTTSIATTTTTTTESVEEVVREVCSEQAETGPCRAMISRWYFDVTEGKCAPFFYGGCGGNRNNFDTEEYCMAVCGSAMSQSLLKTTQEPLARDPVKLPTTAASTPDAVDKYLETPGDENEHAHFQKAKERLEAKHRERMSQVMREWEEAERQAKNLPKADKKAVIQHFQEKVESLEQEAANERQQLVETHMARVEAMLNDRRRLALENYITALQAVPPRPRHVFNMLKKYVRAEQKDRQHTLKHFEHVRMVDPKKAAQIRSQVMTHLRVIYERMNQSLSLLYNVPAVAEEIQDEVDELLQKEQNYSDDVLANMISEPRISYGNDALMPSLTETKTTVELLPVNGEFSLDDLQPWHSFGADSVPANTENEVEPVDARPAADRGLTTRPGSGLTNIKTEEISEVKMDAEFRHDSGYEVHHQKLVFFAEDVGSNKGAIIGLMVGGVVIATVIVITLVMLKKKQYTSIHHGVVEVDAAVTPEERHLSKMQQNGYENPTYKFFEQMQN

Consider `C(=C\c1cnc(/C=C/c2ccc(N3CCOCC3)cc2)cn1)/c1ccc(N2CCOCC2)cc1`, for which the results for the concentration for half-maximal inhibition (IC50) in data set [1] (read-out: IC50) and in [3] (read-out: IC50) were 6 nM and 43 nM, respectively. Moreover, the result in data set [2] and in data set [4] was Active.
As to `CN1CCN(c2ccc(/C=C/c3cnc(/C=C/c4ccc(N5CCN(C)CC5)cc4)cn3)cc2)CC1`, the IC50 – broadly, the concentration that inhibits the measured activity by half – came out at 42 nM in [1] (read-out: IC50) and 51 nM in data set [3] (read-out: IC50). The result in data set [2] and in data set [4] was Active.
For the compound `COc1ccc(/C=C/c2cnc(/C=C/c3ccc(OC)cc3)cn2)cc1`, the IC50 was 13 nM in data set [1] (read-out: IC50) and 17 nM in data set [3] (read-out: IC50). The outcome in [2] and in data set [4] was Active.
Regarding `Cn1cccc1/C=C/c1cc(-c2ccccc2)c(/C=C/c2cccn2C)nn1`, the half-inhibitory concentration (IC50) result in data set [1] and in [3] was “Not Active” each time. The outcome in data set [2] and in [4] was Active.
As for `C(=C\c1cnc(/C=C/c2ccc(N3CCCC3)cc2)cn1)/c1ccc(N2CCCC2)cc1`, the result in data set [2] and in data set [4] was Active.
As for `COc1cc(/C=C/c2ccc(O)cc2)ccc1/C=C/c1ccc(O)cc1`, the IC50 turned out to be 246 nM in [1] (read-out: IC50) and 140 nM in data set [3] (read-out: IC50). In [5], the Ratio IC50 was 1.8. Further, the log partition coefficient (logP) (as a rule, a log measure of how a compound divides between an organic and an aqueous phase) in [6] turned out to be 2.6.
Consider `C(=C\c1cc(/C=C/c2ccc(N3CCCC3)cc2)ncn1)/c1ccc(N2CCCC2)cc1`, for which the IC50 in data set [1] (read-out: IC50) came to 2 nM; in data set [3] (read-out: IC50), 52 nM. In data set [7], the Activity entry was “Non-toxic”. The outcome in data set [2] and in data set [4] was Active. The outcome in data set [8] was inactive.
Consider `C(=C\c1cc(/C=C/c2ccc(N3CCCCC3)cc2)ncn1)/c1ccc(N2CCCCC2)cc1`, for which the IC50 in [1] (read-out: IC50) came out at 17 nM; in [3] (read-out: IC50), 156 nM. Also, the result in data set [2] and in [4] was Active.
Consider `[11CH3]Oc1cc(/C=C/c2ccc(O)cc2)ccc1/C=C/c1ccc(O)cc1`, for which the Ki (usually the equilibrium dissociation constant of an inhibitor or competing ligand from its target) in data set [9] was determined as 26.8 nM.
As to `C(=C\c1cc(/C=C/c2ccc(N3CCOCC3)cc2)ncn1)/c1ccc(N2CCOCC2)cc1`, the concentration for half-maximal inhibition (IC50) result in [1] and in data set [3] was “Not Active” each time. For the same compound, the outcome in data set [2] and in [4] was Active.
For the compound `C(=C\c1cnc(/C=C/c2ccc(N3CCCCC3)cc2)cn1)/c1ccc(N2CCCCC2)cc1`, the outcome in data set [2] and in [4] was Active.
As for `Cn1cccc1/C=C/c1cnc(/C=C/c2cccn2C)cn1`, the outcome in data set [2] and in [4] was Active.
As for `COc1ccc(-c2cc(/C=C/c3ccc(N(C)C)cc3)nnc2/C=C/c2ccc(N(C)C)cc2)cc1`, the IC50 is 1590 nM in data set [1] (read-out: IC50) and 4570 nM in [3] (read-out: IC50). Besides, the result in [2] and in [4] was Active.
As to `CN(C)c1ccc(/C=C/c2cc(-c3ccccc3F)c(/C=C/c3ccc(N(C)C)cc3)nn2)cc1`, the values for the IC50 in data set [1] (read-out: IC50) and in data set [3] (read-out: IC50) were 1250 nM and 10100 nM, respectively. Moreover, the result in [2] and in data set [4] was Active.
As for `C(=C\c1cc(-c2ccccc2)c(/C=C/c2ccc(N3CCOCC3)cc2)nn1)/c1ccc(N2CCOCC2)cc1`, the figures for the IC50 in data set [1] (read-out: IC50) and in data set [3] (read-out: IC50) were 4710 nM and 7590 nM, respectively. In addition, the result in data set [2] and in data set [4] was Active.
`CN(C)c1ccc(/C=C/C=C/c2cc(/C=C/C=C/c3ccc(N(C)C)cc3)ncn2)cc1`: the 50% inhibitory concentration (IC50) stood at 2 nM in data set [1] (read-out: IC50) and 3 nM in data set [3] (read-out: IC50). In addition, the outcome in data set [2] and in data set [4] was Active.
On to `CN(C)c1ccc(/C=C/c2cc(-c3ccccc3)c(/C=C/c3ccc(N(C)C)cc3)nn2)cc1`, for which the half-inhibitory concentration (IC50) result in data set [1] and in data set [3] was “Not Active” in each case. The result in [2] and in [4] was Active.
As for `CC(C)c1ccc(/C=C/c2cnc(/C=C/c3ccc(C(C)C)cc3)cn2)cc1`, the IC50 result in data set [1] and in data set [3] was “Not Active” in each case. Also, the result in data set [2] and in data set [4] was Active.
As for `CN(C)c1ccc(/C=C/c2cnc(/C=C/c3ccc(N(C)C)cc3)cn2)cc1`, the result in data set [10], in data set [2], in data set [4], in [8] and in data set [11] was Active.
Regarding `CN(C)c1ccc(/C=C/c2cc(/C=C/c3ccc(N(C)C)cc3)ncn2)cc1`, the values for the IC50 in data set [1] (read-out: IC50) and in data set [3] (read-out: IC50) were 4 nM and 54 nM, respectively. The Activity result in data set [7] is listed as “Non-toxic”. Moreover, the result in [2], in data set [4], in [8] and in data set [13] was Active. Also, in data set [12], the Ratio IC50 is 13.5.
Consider `CN1CCN(c2ccc(/C=C/c3cc(/C=C/c4ccc(N5CCN(C)CC5)cc4)ncn3)cc2)CC1`, for which the IC50 was found to be 7470 nM in [1] (read-out: IC50) and 2380 nM in data set [3] (read-out: IC50). The outcome in data set [2] and in data set [4] was Active.

(Values after ChEMBL document CHEMBL2177056, “Bis(arylvinyl)pyrazines, -pyrimidines, and -pyridazines as imaging agents for tau fibrils and β-amyloid plaques in Alzheimer's disease models” (J Med Chem, 2012).)
